Assay results taken from publication PMC7848861 (Frontiers in Microbiology, 2021).
Peptide text beside a SMILES is read from it.

Columns and labels:
[1] = system: primary human macrophages; experiment: Toxicity of peptides against macrophages (PrestoBlue); type: cell-based; conditions: three independent experiments
Protocol: Human peripheral blood mononuclear cells (PBMC) were isolated by density gradient centrifugation (Ficoll-Paque™ Plus; GE Healthcare) of buffy coat preparations from anonymous donors (Institute of Transfusion Medicine, Ulm University). Monocytes were isolated from PBMCs by adherence on tissue culture treated plastic flasks (Falcon, Corning, NY, United States). Monocyte-derived macrophages were generated by incubation with granulocyte-macrophage colony-stimulating factor (10 ng/ml; Miltenyi Biotec, Bergisch Gladbach, Germany) in Macrophage-Serum Free Medium (M-SFM; Gibco, ThermoFisher Scientific, Schwerte, Germany) for 6 days.
About 1 × 10^5 macrophages were incubated with peptides for 18 h in a 96-well plate, followed by addition of 10% PrestoBlue™ (Thermo Fisher) for 20 min. The non-fluorescent resazurin-based PrestoBlue is reduced to fluorescent resorufin by mitochondrial enzymes of viable cells ([Xu et al., 2015]). The fluorescence intensity (FI) was measured at λex 560 nm and λem 600 nm using Infinite 200 PRO (Tecan, Männedorf, Suisse) plate reader. Cell viability (%) was calculated using the following formula where the ratio of the FIs of the sample and the untreated control is calculated after subtracting the background FI introduced by the same volume of cell culture medium: [FI (sample)-FI (background)]/[FI (untreated control)-FI (background)] × 100.

[2] = Half-life of Angie1 in human serum; type: in vitro ADME; conditions: human serum (Lonza 14-490E) spiked with 10 μM, 37°C, aliquots 5–120 min, LC-MS (Orbitrap Elite) signal area, triplicates, GraphPad Prism
Protocol: Human serum (14-490E, Lonza, Basel, Switzerland) was spiked with 10 μM Angie1 and incubated at 37°C for 2 h in triplicates. After 5, 10, 20, 30, 45, 60, 90, and 120 min; aliquots (5 μl) were diluted with 1.5 ml ice cold TFA (0.1%). Around 15 μl of each sample was analyzed using an Orbitrap Elite system (Thermo Fisher Scientific) as described above. XCalibur Qual Browser (Thermo Fisher Scientific) was used for visualization of the total ion chromatograms and spectra, as well as for signal area calculation. The theoretical spectrum of Angie1 and its degradation products were generated and the highest intensity signals were used as reference for detecting Angie1 and its degradation products. Plot graphs (signal area vs. time) and half-lives were calculated with GraphPad Prism 8.0 (GraphPad, La Jolla, CA, United States).

human macrophages = experiment: Uptake by macrophages (flow cytometry, confocal laser microscopy); type: cell-based; conditions: Atto647N-labeled peptide, 54 μM, 18 h, alone or incorporated into liposomes; flow cytometry and confocal microscopy, three donors
Protocol: For investigation of Angie1 internalization, 1 × 10^6 macrophages were incubated with Angie1-Atto647N or Angie1-Atto647N Lip for 18 h. Samples were then analyzed using a FACS Calibur (BD Biosciences) with FlowJo v10.4.1 (BD). For confocal laser microscopy, 0.1 × 10^6 macrophages were seeded in 200 μl M-SFM in an eight-chamber slide (Thermo Fisher) and incubated with Angie1-Atto 647 N (54 μM) or Angie1-Atto 647 N Lip (54 μM) or Angiogenin-Atto647N Lip. After overnight incubation, cells were fixed (4% PFA, Sigma-Aldrich), followed by blocking in 2% BSA. Subsequently macrophages were labeled with major histocompatibility antigen class II antibodies (HLA-DR; 1:200, clone L243, Leinco, St. Louis, MS, United States) detected by Cy2-conjugated goat anti-mouse antibodies (1:200, Dianova, Hamburg, Germany). Cell nuclei were stained with DAPI (1:200, Sigma-Aldrich) diluted in 1% BSA and 0.1% Triton X-100 in PBS (all Sigma-Aldrich). Images were acquired using the inverted laser scanning confocal microscope LSM 710 (Zeiss, Oberkochen, Germany). Image processing was performed using ImageJ software (v 1.52c).

zebrafish embryos = experiment: Toxicity against zebrafish embryos; type: in vivo; conditions: 1, 10, and 100 μM, exposure 24 h from 24 hpf, scored at 48 hpf, n = 60 embryos each group
Protocol: Wild-type zebrafish embryos were dechorionated at 24 h post fertilization (hpf) using digestion with 1 mg/ml pronase (Sigma) in E3 medium (83 μM NaCl, 2.8 μM KCl, 5.5 μM CaCl2, and 5.5 μM MgSO4). Embryos were exposed for 24 h, in groups of three, to 100 μl of E3 medium containing Angie1 at 1, 10, and 100 μM. Each concentration was tested in two independent assays, each of which was performed on 10 × 3 embryos. The peptide solvent (PBS), diluted in E3, was used as negative control at the same amount as introduced by the highest peptide concentration. As positive control for acute toxicity/cytotoxicity the pleurocidin antimicrobial peptide NRC-03 ([…]-[…]-NH2) was used at a concentration of 6 μM as described ([Morash et al., 2011]). Abamectin at a concentration of 3.125 μM was used as positive control for neurotoxicity ([Raftery et al., 2014]). At 48 hpf (after 24 h of incubation) embryos were scored in a stereomicroscope for signs of acute toxicity/cytotoxicity (lysis and/or necrosis), developmental toxicity (delay and/or malformations), or cardiotoxicity (heart edema and/or reduced or absent circulation). Each embryo was also touched with a needle and reduced or absent touch response (escape movements) was evaluated as signs of neurotoxicity if and only if no signs of acute toxicity were present in the same embryo. […]

Solubility in water = type: physicochemical
[3] = system: intracellular Mtb in primary human macrophages; type: cell-based, Mycobacterium tuberculosis; conditions: 10 μM, 4 days, MOI 5, CFU on 7H11 after 21 days; diluent control 9.5-fold; p < 0.05; six donors
[4] = system: Mycobacterium tuberculosis H37Rv (extracellular Mtb); type: cell-based; conditions: 100 μM peptide; 2 × 10^6 Mtb, 96 h incubation, 3H-Uracil uptake vs untreated control; mean ± SD, triplicates of three independent experiments
[5] = system: primary human monocytes or macrophages; experiment: Chemotaxis or cytokine release by monocytes or macrophages (not shown); type: cell-based; conditions: data not shown

Row | Molecule | Toxicity for primary human macrophages ([1]; Angie1 at 27, 54, or 108 μM, PrestoBlue, 24 h) | Half-life in human serum [2] [min] | half-life at 10 μM [2] [min] | Uptake by macrophages (human macrophages) | Toxicity to zebrafish embryos (acute/cyto-, cardio-, developmental, neurotoxicity) (zebrafish embryos) | Solubility in water (Solubility in water) | Viability of macrophages ([1]; Angiogenin 10 μM, 18 h (legend: 24 h), PrestoBlue resazurin metabolism) | Multiplication of intracellular Mtb (n-fold growth d4 vs d0) [3] [fold] | Antimicrobial activity against extracellular Mtb [4] [%] | Induction of chemotaxis or cytokine release [5]
1 | CC[C@H](C)[C@H](NC(=O)[C@H](C)NC(=O)[C@H](CCCCN)NC(=O)[C@@H](NC(=O)[C@H](CO)NC(=O)[C@@H](NC(=O)[C@H](CCCCN)NC(=O)[C@H](CC(N)=O)NC(=O)CNC(=O)[C@H](Cc1c[nH]cn1)NC(=O)[C@@H](NC(=O)[C@H](Cc1ccccc1)NC(=O)[C@@H](NC(=O)[C@H](CC(N)=O)NC(=O)[C@@H](NC(=O)[C@H](C)NC(=O)[C@@H](N)CCCCN)[C@@H](C)CC)[C@@H](C)O)[C@@H](C)CC)[C@@H](C)CC)[C@@H](C)CC)C(=O)O [Angie1] (H-KAINTFIHGNKISIKAI-OH) | not toxic | 3 | 3.06 | equally efficient | no toxicity | soluble in water | – | – | – | –
2 | Angiogenin: endogenous 123 amino acid, 14.1 kDa protein identified in hemofiltrate; tested as synthetic Angiogenin | – | – | – | – | – | – | did not affect the viability | 5.2 | 94 ± 2 | do not induce chemotaxis or cytokine release
